# How the values were obtained:
# Experiment in all cases: NCI-60 one-dose screening
# Type in all cases: cell-based
# MCF7 = conditions: Homo sapiens, MCF7, 10 μM; MCF7, Breast Cancer; read-out: GI (%)
# Experimental: (§1) Compounds 5a–c and 6a–o were tested using standard NCI protocols for in vitro activity at the National Cancer Institute (NCI, Bethesda, Maryland, USA), wherein compounds were tested using one single concentration of 10 μM against 60 cell lines of nine different cancer types. […] Excellent activity was observed against a single NSCLC cell line, EKVX, for compounds 5a–c (GIs = 77–86%, Table 1) with no observed activity for indoles with substituted vanillin 6a–o.
# (§2) Anticancer activity was tested against 60 cancer cell lines at the NCI, Bethesda, USA. The screening process was done with a single dosage of 10 μM according to NCI protocols published on the NCI website https://dtp.cancer.gov/discovery_development/nci-60/methodology.htm.
# SW-620 = conditions: Homo sapiens, SW-620, Colon Cancer, read-out: GI (%)
# Experimental: as §1, §2
# LOX IMVI = conditions: Homo sapiens, Melanoma, read-out: GI (%)
# Experimental: as §1, §2
# COLO 205 = conditions: Homo sapiens, COLO 205, Colon Cancer, read-out: GI (%)
# Experimental: as §1, §2
# SNB-19 = conditions: Homo sapiens, SNB-19, CNS Cancer, read-out: GI (%)
# Experimental: as §1, §2
# NCI-H522 = conditions: Homo sapiens, NCI-H522, Non-Small Cell Lung Cancer, read-out: GI (%)
# Experimental: as §1, §2
# UACC-257 = conditions: Homo sapiens, UACC-257, Melanoma, read-out: GI (%)
# Experimental: as §1, §2
# NCI/ADR-RES = conditions: Homo sapiens, Ovarian Cancer, read-out: GI (%)
# Experimental: as §1, §2
# EKVX = conditions: Homo sapiens, Non-Small Cell Lung Cancer, read-out: GI (%)
# Experimental: as §1, §2
# NCI-H460 = conditions: Homo sapiens, NCI-H460, Non-Small Cell Lung Cancer, read-out: GI (%)
# Experimental: as §1, §2
# MDA-MB-468 = conditions: Homo sapiens, MDA-MB-468, Breast Cancer, read-out: GI (%)
# Experimental: as §1, §2
# ACHN = conditions: Homo sapiens, Renal Cancer, read-out: GI (%)
# Experimental: as §1, §2
# OVCAR-5 = conditions: Homo sapiens, OVCAR-5, Ovarian Cancer, read-out: GI (%)
# Experimental: as §1, §2
# SF-539 = conditions: Homo sapiens, SF-539, CNS Cancer, read-out: GI (%)
# Experimental: as §1, §2
# HOP-62 = conditions: Homo sapiens, HOP-62, Non-Small Cell Lung Cancer, read-out: GI (%)
# Experimental: as §1, §2
# BT-549 = conditions: Homo sapiens, BT-549, Breast Cancer, read-out: GI (%)
# Experimental: as §1, §2
# A498 = conditions: Homo sapiens, A498, Renal Cancer, read-out: GI (%)
# Experimental: as §1, §2
# UACC-62 = conditions: Homo sapiens, UACC-62, Melanoma, read-out: GI (%)
# Experimental: as §1, §2
# DU-145 = conditions: Homo sapiens, DU-145, Prostate Cancer, read-out: GI (%)
# Experimental: as §1, §2
# HL-60(TB) = conditions: Homo sapiens, Leukemias, read-out: GI (%)
# Experimental: as §1, §2
# U251 = conditions: Homo sapiens, U-251, U251, CNS Cancer, read-out: GI (%)
# Experimental: as §1, §2
# SF-295 = conditions: Homo sapiens, SF-295, CNS Cancer, read-out: GI (%)
# Experimental: as §1, §2
# SK-OV-3 = conditions: Homo sapiens, SK-OV-3, Ovarian Cancer, read-out: GI (%)
# Experimental: as §1, §2
# A549/ATCC = conditions: Homo sapiens, Non-Small Cell Lung Cancer, read-out: GI (%)
# Experimental: as §1, §2
# MDA-MB-231/ATCC = conditions: Homo sapiens, Breast Cancer, read-out: GI (%)
# Experimental: as §1, §2
# CCRF-CEM = conditions: Homo sapiens, Leukemias, read-out: GI (%)
# Experimental: as §1, §2
# HS 578T = conditions: Homo sapiens, Breast Cancer, read-out: GI (%)
# Experimental: as §1, §2
# SNB-75 = conditions: Homo sapiens, SNB-75, CNS Cancer, read-out: GI (%)
# Experimental: as §1, §2
# UO-31 = conditions: Homo sapiens, UO-31, Renal Cancer, read-out: GI (%)
# Experimental: as §1, §2
# SK-MEL-28 = conditions: Homo sapiens, SK-MEL-28, Melanoma, read-out: GI (%)
# Experimental: as §1, §2
# 786-0 = conditions: Homo sapiens, 786-0, Renal Cancer, read-out: GI (%)
# Experimental: as §1, §2
# HCT-116 = conditions: Homo sapiens, HCT-116, Colon Cancer, read-out: GI (%)
# Experimental: as §1, §2
# NCI-H226 = conditions: Homo sapiens, NCI-H226, Non-Small Cell Lung Cancer, read-out: GI (%)
# Experimental: as §1, §2
# HT29 = conditions: Homo sapiens, HT-29, HT29, Colon Cancer, read-out: GI (%)
# Experimental: as §1, §2
# IGROV1 = conditions: Homo sapiens, IGROV-1, IGROV1, Ovarian Cancer, read-out: GI (%)
# Experimental: as §1, §2
# K-562 = conditions: Homo sapiens, K562, K-562, Leukemias, read-out: GI (%)
# Experimental: as §1, §2
SMILES,inhibition at 10 µM (MCF7) [%],inhibition at 10 µM (SW-620) [%],inhibition at 10 µM (LOX IMVI) [%],inhibition at 10 µM (COLO 205) [%],inhibition at 10 µM (SNB-19) [%],inhibition at 10 µM (NCI-H522) [%],inhibition at 10 µM (UACC-257) [%],inhibition at 10 µM (NCI/ADR-RES) [%],inhibition at 10 µM (EKVX) [%],inhibition at 10 µM (NCI-H460) [%],inhibition at 10 µM (MDA-MB-468) [%],inhibition at 10 µM (ACHN) [%],inhibition at 10 µM (OVCAR-5) [%],inhibition at 10 µM (SF-539) [%],inhibition at 10 µM (HOP-62) [%],inhibition at 10 µM (BT-549) [%],inhibition at 10 µM (A498) [%],inhibition at 10 µM (UACC-62) [%],inhibition at 10 µM (DU-145) [%],inhibition at 10 µM (HL-60(TB)) [%],other results
COc1cc(C=C2C(=O)Nc3cc(Cl)ccc32)ccc1OCc1ccc(Cl)cc1 (mixture of isomers) [6l],50 to 65,2.57,-8.24,-13.1,-5.43,4.01,-8.7,0.31,24.8,9.67,4.61,7.13,-2.97,8.46,4.49,6.99,5.41,11.1,-3.93,-11.5,inhibition at 10 µM (U251): -5.85%; inhibition at 10 µM (SF-295): 2.01%; inhibition at 10 µM (SK-OV-3): -0.69%; inhibition at 10 µM (A549/ATCC): -5.86%; inhibition at 10 µM (MDA-MB-231/ATCC): 8.37%; inhibition at 10 µM (CCRF-CEM): 3.42%; inhibition at 10 µM (HS 578T): 4.96%; inhibition at 10 µM (SNB-75): -3.14%; inhibition at 10 µM (UO-31): 22.2%; inhibition at 10 µM (SK-MEL-28): -1.11%; inhibition at 10 µM (786-0): -7.1%; inhibition at 10 µM (HCT-116): 5.08%; inhibition at 10 µM (NCI-H226): 4.89%; inhibition at 10 µM (HT29): -5.54%; inhibition at 10 µM (IGROV1): 27.7%; inhibition at 10 µM (K-562): 9.88%
COc1cc(/C=C2/C(=O)Nc3ccccc32)ccc1OCc1ccc(Cl)cc1 [6b],30.5,3.4,0.22,-16.1,2.91,4.25,-24.7,-0.22,4.66,58.9,-1.64,7.31,-0.58,1.99,-0.91,-9.1,-15.1,12.4,1.33,-13.4,inhibition at 10 µM (U251): -7%; inhibition at 10 µM (SF-295): -2.92%; inhibition at 10 µM (SK-OV-3): -10.5%; inhibition at 10 µM (A549/ATCC): -7.18%; inhibition at 10 µM (MDA-MB-231/ATCC): 1%; inhibition at 10 µM (CCRF-CEM): 5.07%; inhibition at 10 µM (HS 578T): -4.77%; inhibition at 10 µM (SNB-75): -3.58%; inhibition at 10 µM (UO-31): 18.7%; inhibition at 10 µM (SK-MEL-28): 7.06%; inhibition at 10 µM (786-0): -6.18%; inhibition at 10 µM (HCT-116): 13.1%; inhibition at 10 µM (NCI-H226): 3.35%; inhibition at 10 µM (HT29): -8.68%; inhibition at 10 µM (IGROV1): -2.14%; inhibition at 10 µM (K-562): 1.45%
COc1ccc(COc2ccc(/C=C3/C(=O)Nc4ccc(Cl)cc43)cc2OC)cc1 [6i],22.3,6.24,5.6,-10.1,2.61,5.36,-2.09,3.06,11.4,-2,5.64,5.13,1.66,-1.4,3.08,-13.3,-6.49,17.9,-12.1,0.37,inhibition at 10 µM (U251): -2.19%; inhibition at 10 µM (SF-295): -0.88%; inhibition at 10 µM (SK-OV-3): -8.16%; inhibition at 10 µM (A549/ATCC): -1.42%; inhibition at 10 µM (MDA-MB-231/ATCC): -0.06%; inhibition at 10 µM (CCRF-CEM): 1.43%; inhibition at 10 µM (HS 578T): -2.52%; inhibition at 10 µM (SNB-75): 11%; inhibition at 10 µM (UO-31): 30.9%; inhibition at 10 µM (SK-MEL-28): -6.77%; inhibition at 10 µM (786-0): 0.79%; inhibition at 10 µM (HCT-116): 4.18%; inhibition at 10 µM (NCI-H226): 3.61%; inhibition at 10 µM (HT29): -8.29%; inhibition at 10 µM (IGROV1): 5.39%; inhibition at 10 µM (K-562): 6.52%
COc1cc(/C=C2/C(=O)Nc3cc(Cl)ccc32)ccc1O [5c],54.4,3.92,22.7,-7.08,24.6,25.4,2.41,11.5,77.2,8.53,28.5,23.6,-7.45,39.8,29.2,23.8,11.1,41.5,-1.46,13.9,inhibition at 10 µM (U251): 33.5%; inhibition at 10 µM (SF-295): 15.8%; inhibition at 10 µM (SK-OV-3): 2.42%; inhibition at 10 µM (A549/ATCC): 5.44%; inhibition at 10 µM (MDA-MB-231/ATCC): 50.8%; inhibition at 10 µM (CCRF-CEM): 17%; inhibition at 10 µM (HS 578T): 50.9%; inhibition at 10 µM (SNB-75): 59.5%; inhibition at 10 µM (UO-31): 39.5%; inhibition at 10 µM (SK-MEL-28): 1.11%; inhibition at 10 µM (786-0): 2.08%; inhibition at 10 µM (HCT-116): 30.9%; inhibition at 10 µM (NCI-H226): 10%; inhibition at 10 µM (HT29): -0.03%; inhibition at 10 µM (IGROV1): 36.6%; inhibition at 10 µM (K-562): 19.6%
COc1cc(/C=C2/C(=O)Nc3cc(Cl)ccc32)ccc1OCc1ccc(F)cc1 [6m],42.9,1.76,6.49,-10.2,-3.75,7.08,-9.31,-0.91,23.5,1.02,7.02,6.43,1.44,4.99,4.08,4.26,5.75,11.2,-4.25,-20.4,inhibition at 10 µM (U251): -10.6%; inhibition at 10 µM (SF-295): 2.87%; inhibition at 10 µM (SK-OV-3): 2.75%; inhibition at 10 µM (A549/ATCC): -9.5%; inhibition at 10 µM (MDA-MB-231/ATCC): 7.87%; inhibition at 10 µM (HS 578T): 8.25%; inhibition at 10 µM (SNB-75): -4.47%; inhibition at 10 µM (UO-31): 20.2%; inhibition at 10 µM (SK-MEL-28): -5.13%; inhibition at 10 µM (786-0): -7.88%; inhibition at 10 µM (HCT-116): 7.12%; inhibition at 10 µM (NCI-H226): 8.79%; inhibition at 10 µM (HT29): -5.1%; inhibition at 10 µM (IGROV1): 27.3%; inhibition at 10 µM (K-562): 2.33%

# From PMC9948168, “Vanillin-Based Indolin-2-one Derivative Bearing a Pyridyl Moiety as a Promising Anti-Breast Cancer Agent via Anti-Estrogenic Activity” (ACS Omega, 2023)
